Source: ChEMBL document CHEMBL5537146, “Novel orally bioavailable piperidine derivatives as extracellular arginase inhibitors developed by a ring expansion” (Eur J Med Chem, 2024)

How the values were obtained:
Arginase-1 [1] = molecular target: T1, Arginase-1 (Homo sapiens, UniProt P05089); experiment: Inhibition of human recombinant ARG1 expressed in Escherichia coli using L-arginine hydrochloride as substrate assessed as inhibition of urea production incubated for 20 mins by colorimetric analysis
T1 sequence (P05089 whole entry): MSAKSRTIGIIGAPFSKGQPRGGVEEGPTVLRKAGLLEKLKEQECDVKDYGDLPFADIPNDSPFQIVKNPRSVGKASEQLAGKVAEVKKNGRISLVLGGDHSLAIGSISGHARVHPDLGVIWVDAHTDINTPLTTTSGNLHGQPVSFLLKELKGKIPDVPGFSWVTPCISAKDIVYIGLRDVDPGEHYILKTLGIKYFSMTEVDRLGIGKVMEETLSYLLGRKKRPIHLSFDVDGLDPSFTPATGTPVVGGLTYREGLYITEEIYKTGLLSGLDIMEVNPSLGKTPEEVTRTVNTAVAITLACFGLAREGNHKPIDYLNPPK

[2] = Inhibition of mouse intracellular ARG in M2 polarized C57BL/6 mouse BMDM cells incubated for 24 hrs by absorbance based analysis; format: cell-based; details: C57BL/6, BMDM
Arginase-1 [3] = molecular target: T1, Arginase-1; experiment: Inhibition of extracellular arginase (unknown origin)
[4] = Permeability in human Caco-2 cells; format: ADME, cell-based
[5] = Terminal elimination half-life in Sprague-Dawley rat at 3 mg/kg, iv measured over 24 hrs by LC-MS/MS analysis; format: ADME, organism-based; details: in vivo, read-out: beta t1/2 (converted)
[6] = molecular target: Voltage-gated inwardly rectifying potassium channel KCNH2 (Homo sapiens, UniProt Q12809); experiment: Inhibition of hERG; format: toxicity
Chain of Voltage-gated inwardly rectifying potassium channel KCNH2 (Q12809 whole entry): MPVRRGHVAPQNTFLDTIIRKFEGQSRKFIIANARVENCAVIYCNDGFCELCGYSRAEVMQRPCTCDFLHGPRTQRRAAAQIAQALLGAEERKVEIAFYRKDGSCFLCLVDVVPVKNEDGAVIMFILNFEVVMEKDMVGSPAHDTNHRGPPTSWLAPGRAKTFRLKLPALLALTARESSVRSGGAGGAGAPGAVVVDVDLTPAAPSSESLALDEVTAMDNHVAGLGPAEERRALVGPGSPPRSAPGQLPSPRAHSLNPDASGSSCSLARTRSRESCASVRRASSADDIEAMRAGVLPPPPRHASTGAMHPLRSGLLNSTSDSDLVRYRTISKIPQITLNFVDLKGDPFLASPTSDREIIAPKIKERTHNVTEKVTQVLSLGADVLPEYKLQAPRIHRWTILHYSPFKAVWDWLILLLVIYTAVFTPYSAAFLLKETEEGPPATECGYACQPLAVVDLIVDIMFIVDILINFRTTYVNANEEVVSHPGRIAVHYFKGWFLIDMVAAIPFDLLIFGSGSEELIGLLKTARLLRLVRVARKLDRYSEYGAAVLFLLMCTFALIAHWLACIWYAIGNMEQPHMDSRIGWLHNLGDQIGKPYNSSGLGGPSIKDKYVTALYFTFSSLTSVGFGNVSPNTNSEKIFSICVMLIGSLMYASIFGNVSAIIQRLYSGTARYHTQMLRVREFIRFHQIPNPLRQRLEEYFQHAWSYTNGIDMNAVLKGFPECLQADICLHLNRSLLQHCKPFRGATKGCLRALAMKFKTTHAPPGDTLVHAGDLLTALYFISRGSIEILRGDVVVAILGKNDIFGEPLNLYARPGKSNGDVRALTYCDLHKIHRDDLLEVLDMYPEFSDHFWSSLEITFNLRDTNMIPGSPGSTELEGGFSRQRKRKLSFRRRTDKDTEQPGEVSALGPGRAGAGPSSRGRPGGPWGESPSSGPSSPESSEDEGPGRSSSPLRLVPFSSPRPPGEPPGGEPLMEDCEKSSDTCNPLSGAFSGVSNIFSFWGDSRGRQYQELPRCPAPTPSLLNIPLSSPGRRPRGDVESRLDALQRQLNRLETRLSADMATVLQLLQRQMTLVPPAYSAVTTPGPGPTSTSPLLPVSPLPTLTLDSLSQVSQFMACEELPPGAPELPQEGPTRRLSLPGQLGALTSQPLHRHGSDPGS

[7] = Drug metabolism in Sprague-Dawley rat plasma assessed as increase in arginine level by measuring fold change at 10 mg/kg, po measured for 24 hrs by LC-MS/MS analysis; format: ADME, organism-based; details: in vivo
[8] = Clearance in Sprague-Dawley rat at 3 mg/kg, iv measured over 24 hrs by LC-MS/MS analysis; format: ADME, organism-based; details: in vivo
[9] = Volume of distribution at steady state in Sprague-Dawley rat at 3 mg/kg, iv measured over 24 hrs by LC-MS/MS analysis; format: ADME, organism-based; details: in vivo, read-out: Vdss
[10] = Drug metabolism in Balb/c mouse plasma assessed as (3R,5S)-3-amino-5-(2-boronoethyl)piperidine-3-carboxylic acid metabolite formation at 100 mg/kg, po measured for 24 hrs by LC-MS/MS analysis; format: ADME, organism-based; details: in vivo
[11] = Oral bioavailability in Sprague-Dawley rat at 10 mg/kg measured over 24 hrs by LC-MS/MS analysis; format: ADME, organism-based; details: in vivo
[12] = Drug metabolism in Balb/c mouse plasma assessed as increase in arginine level by measuring fold change at 100 mg/kg, po measured for 24 hrs […] by LC-MS/MS analysis; format: ADME, organism-based; details: in vivo
[13] = Tmax in Sprague-Dawley rat at 10 mg/kg, po measured over 24 hrs by LC-MS/MS analysis; format: ADME, organism-based; details: in vivo
[14] = Genotoxicity in Salmonella typhimurium TA98 in presence of S9 fraction by Ames test; format: toxicity; details: salmonella enterica subsp. enterica serovar typhimurium
[15] = Toxicity in Sprague-Dawley rat assessed as mortality upto 1 g/Kg, po measured after 7 days; format: organism-based; details: in vivo, 1000 mg/kg, 168 h, time 7 day
[16] = Toxicity in Sprague-Dawley rat assessed as change in body weight measured after 7 days; details: in vivo, 168 h, time 7 day
[17] = AUC (0 to infinity) in Sprague-Dawley rat at 10 mg/kg, po measured for 24 hrs by LC-MS/MS analysis; format: ADME, organism-based; details: in vivo
[18] = Oral bioavailability in Balb/c mouse at 100 mg/kg measured for 24 hrs by LC-MS/MS analysis; format: ADME, organism-based; details: in vivo

Row | Structure (SMILES) | IC50 (Arginase-1 [1]) [nM] | IC50 [2] [µM] | further results
1 | C[C@@H](O)[C@H](N)C(=O)N1C[C@@H](CCB(O)O)C[C@](N)(C(=O)O)C1 | 380 | > 300 | –
2 | CC(C)C[C@H](N)C(=O)N1C[C@@H](CCB(O)O)C[C@](N)(C(=O)O)C1 | 610 | > 300 | –
3 | C[C@@H]1N(C(=O)[C@@H](N)CCCNC(=N)N)C[C@@H](CCB(O)O)C[C@]1(N)C(=O)O | 400 | – | –
4 | NC(=O)CC[C@H](N)C(=O)N1C[C@@H](CCB(O)O)C[C@](N)(C(=O)O)C1 | 420 | > 300 | –
5 | CC[C@H](C)[C@H](N)C(=O)N1C[C@@H](CCB(O)O)C[C@](N)(C(=O)O)C1 | 760 | > 300 | –
6 | N[C@@]1(C(=O)O)CCC[C@@H](CCB(O)O)C1 | 1200 | – | –
7 | C[C@@H](N)C(=O)N1C[C@@H](CCB(O)O)C[C@](N)(C(=O)O)C1 | 3220 | > 300 | –
8 | CNCC(=O)N1C[C@@H](CCB(O)O)C[C@](N)(C(=O)O)C1 | 420 | > 300 | –
9 | C[C@H](N)C(=O)N1C[C@H](CCB(O)O)C[C@@](N)(C(=O)O)C1 | > 10000 | – | –
10 | N[C@@H](CS)C(=O)N1C[C@@H](CCB(O)O)C[C@](N)(C(=O)O)C1 | 760 | > 300 | –
11 | CC(C)[C@H](N)C(=O)N1C[C@@H](CCB(O)O)C[C@](N)(C(=O)O)C1 | 360 | > 300 | –
12 | CN(C)C[C@@H]1CC[C@@H](CCB(O)O)C[C@]1(N)C(=O)O | 20 | 1.1 | IC50 (Arginase-1 [3]): 20 nM
13 | N[C@@]1(C(=O)O)CNC[C@@H](CCB(O)O)C1 | 830 | – | –
14 | NC(=O)NCCC[C@H](N)C(=O)N1C[C@@H](CCB(O)O)C[C@](N)(C(=O)O)C1 | 360 | > 300 | –
15 | C[C@H](N)C(=O)N1C[C@H](CCB(O)O)C[C@](N)(C(=O)O)C1 | > 10000 | – | –
16 | Cn1cc(C[C@@H](N)C(=O)N2C[C@@H](CCB(O)O)C[C@](N)(C(=O)O)C2)c2ccccc21 | 740 | > 300 | –
17 | N=C(N)NCCC[C@H](N)C(=O)N1C[C@@H](CCB(O)O)C[C@](N)(C(=O)O)C1 | 160 | > 300 | permeability [4]: Impermeable; half-life [5]: 160 min; inhibition (INH) [6]: Not Active; fold change (FC) [7]: 2; clearance [8]: 5.87 mL/min/kg; Vd [9]: 0.69 L/kg; Drug metabolism [10]: Metabolite_Detected; bioavailability [11]: 18.8%; fold change (FC) [12]: 3; Tmax [13]: 1 h; Activity [14]: Toxic; Activity [15]: Non-Toxic; Activity [16]: Non-Toxic
18 | N[C@@H](Cc1c[nH]c2ccccc12)C(=O)N1C[C@@H](CCB(O)O)C[C@](N)(C(=O)O)C1 | 280 | > 300 | –

Row | Structure (SMILES) | IC50 (Arginase-1 [1]) [nM] | IC50 [2] [µM] | further results
19 | NCC(=O)N1C[C@@H](CCB(O)O)C[C@](N)(C(=O)O)C1 | 250 | > 300 | half-life [5]: 160 min; fold change (FC) [7]: 2; clearance [8]: 5.87 mL/min/kg; Vd [9]: 0.69 L/kg; bioavailability [11]: 18.8%; AUC(0-inf) [17]: 2680 ng·h/mL; Tmax [13]: 1 h
20 | C[C@H](N)C(=O)N1C[C@@H](CCB(O)O)C[C@](N)(C(=O)O)C1 | 270 | > 300 | half-life [5]: 160 min; fold change (FC) [7]: 2; clearance [8]: 5.87 mL/min/kg; Vd [9]: 0.69 L/kg; Drug metabolism [10]: Metabolite_Detected; bioavailability [18]: 58%; bioavailability [11]: 18.8%; fold change (FC) [12]: 3; Tmax [13]: 1 h
21 | C[C@H](N)C(=O)N1C[C@H](CCCB(O)O)[C@](N)(C(=O)O)C1 | – | 56.2 | –
22 | C[C@H](N)C(=O)N1C[C@@H](CCB(O)O)C[C@@](N)(C(=O)O)C1 | > 10000 | – | –
23 | N[C@@H](CC(=O)O)C(=O)N1C[C@@H](CCB(O)O)C[C@](N)(C(=O)O)C1 | 650 | > 300 | –
24 | CCC[C@H](N)C(=O)N1C[C@@H](CCB(O)O)C[C@](N)(C(=O)O)C1 | 340 | > 300 | –
25 | N[C@@H](Cc1c[nH]cn1)C(=O)N1C[C@@H](CCB(O)O)C[C@](N)(C(=O)O)C1 | 210 | > 300 | –
26 | NC(=O)C[C@H](N)C(=O)N1C[C@@H](CCB(O)O)C[C@](N)(C(=O)O)C1 | 360 | > 300 | –
27 | N[C@@H](Cc1ccc(O)cc1)C(=O)N1C[C@@H](CCB(O)O)C[C@](N)(C(=O)O)C1 | 280 | > 300 | –
28 | N[C@@H](CO)C(=O)N1C[C@@H](CCB(O)O)C[C@](N)(C(=O)O)C1 | 280 | > 300 | –
29 | C[C@H](N)C(=O)N1C[C@@H](CCB(O)O)C[C@](N)(C(=O)O)[C@@H]1C | 250 | – | half-life [5]: 160 min; fold change (FC) [7]: 2; clearance [8]: 5.87 mL/min/kg; Vd [9]: 0.69 L/kg; bioavailability [11]: 65.6%; Tmax [13]: 1 h
30 | NCCCC[C@H](N)C(=O)N1C[C@@H](CCB(O)O)C[C@](N)(C(=O)O)C1 | 250 | > 300 | –
31 | N[C@@H](CCC(=O)O)C(=O)N1C[C@@H](CCB(O)O)C[C@](N)(C(=O)O)C1 | 680 | > 300 | –
32 | N[C@@H](Cc1ccccc1)C(=O)N1C[C@@H](CCB(O)O)C[C@](N)(C(=O)O)C1 | 240 | > 300 | half-life [5]: 160 min; fold change (FC) [7]: 2; clearance [8]: 5.87 mL/min/kg; Vd [9]: 0.69 L/kg; bioavailability [11]: 18.8%; Tmax [13]: 1 h
33 | COC(=O)[C@@]1(N)C[C@H](CCB(O)O)CN(C(=O)[C@H](C)N)C1 | > 10000 | – | –
34 | N[C@]1(C(=O)O)C[C@H](CCB(O)O)CN(C(=O)[C@@H]2CCCN2)C1 | 350 | > 300 | –
35 | CSCC[C@H](N)C(=O)N1C[C@@H](CCB(O)O)C[C@](N)(C(=O)O)C1 | 400 | > 300 | –
36 | NCCC[C@H](N)C(=O)N1C[C@@H](CCB(O)O)C[C@](N)(C(=O)O)C1 | 310 | > 300 | –
